The values that follow come from patent US11260139B2, “Rapid surface disinfection method and apparatus” (priority 2011, dated 2022).

Structures are written as SMILES.

For the assay, the system named is S. aureus bacteria. Description: survival of S. aureus bacteria on agar culture plates following 3 sec. exposure to atomized liquid. It counts as cell-based. Conditions: for antimicrobial effectiveness of the liquid as solvent of the nitric oxide solution: liquid atomized with NO, rank: ethanol>isopropanol>water. How it is done: The survival fraction is the fraction of at least 100 colonies that survive the treatment. Control plates were exposed to air for 3 sec. Ethanol plates were exposed to ethanol atomized with nitrogen. 25% NO plates were exposed to ethanol atomized with 25% NO and 75% nitrogen.
Experiments were conducted on agar culture plates to compare nitric oxide concentrations ranging from 0% in nitrogen (the ‘ethanol’ experiment) to 100% NO.

For the molecule `[N]=O` [NO, nitric oxide], the “effect of NO on the antimicrobial activity of the atomized liquid” value (NO concentrations 0% to 100% in nitrogen compared) is “dramatically increases the antimicrobial activity”. `CCO` [ethanol]: the “antimicrobial effectiveness of the liquid as solvent of the nitric oxide solution” value is reported as “effective”. On the same count and under the same terms, the same measure for `CC(C)O` [isopropanol]: “effective”; for `O` [water]: “effective”.
